Converted amounts (≈) assume the structure as drawn.

Format in all cases: cell-based
One test has as its system Botrtyis cinerea (Bc). Kind of test: In vitro pathogen growth inhibition assay, Bc. The settings on record: 48 h, ≥90% growth inhibition; 48 hours; vs 2% DMSO control; read-out: Compound Concentration (ppm) sufficient for ≥90% inhibition of Bc. A digest of the protocol: (§1)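 Value reported is the compound concentration reaching ≥90% growth inhibition, from OD readings at 24 and 48 h after blank subtraction, confirmed visually. Inoculum was spores diluted in 17% V8 medium, except Rs, using 1.5 mm mycelial plugs in ¼ PDB; actual compound concentration corrected via OD600.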

Another test relates to Septoria tritici (St). Kind of test: In vitro pathogen growth inhibition assay, St. The settings on record: Zymoseptoria tritici, 48 h, ≥90% growth inhibition; 48 hours; vs 2% DMSO control; read-out: Compound Concentration (ppm) sufficient for ≥90% inhibition of St. A digest of the protocol:
as §1

Test [1] relates to Phytophthora capsici (Pc). Kind of test: In vitro pathogen growth inhibition assay, Pc. The settings on record: 48 h, ≥90% growth inhibition, 48 hours, vs 2% DMSO control, read-out: Compound Concentration (ppm) sufficient for ≥90% inhibition of Pc. A digest of the protocol: as §1
The next test has as its system Diplodia maydis (Dm). Kind of test: In vitro pathogen growth inhibition assay, Dm. The settings on record: Stenocarpella maydis, 48 h, ≥90% growth inhibition; 48 hours; vs 2% DMSO control; read-out: Compound Concentration (ppm) sufficient for ≥90% inhibition of Dm. A digest of the protocol:
as §1

The subject of test [2] is Fusarium virguliforme (Fv). Kind of test: In vitro pathogen growth inhibition assay, Fv. The settings on record: ≥90% growth inhibition, 48 hours, vs 2% DMSO control, read-out: Compound Concentration (ppm) sufficient for ≥90% inhibition of Fv. A digest of the protocol: as §1
A further test relates to Rhizoctonia solani (Rs). Kind of test: In vitro pathogen growth inhibition assay, Rs (mycelial plugs). The settings on record: Rhizoctonia solani, 48 h, ≥90% growth inhibition; mycelial plugs; 48 hours; vs 2% DMSO control; read-out: Compound Concentration (ppm) sufficient for ≥90% inhibition of Rs. In outline:
as §1

The subject of test [3] is Fusarium moniliforme (Fm). Kind of test: In vitro pathogen growth inhibition assay, Fm. The settings on record: Fusarium verticillioides; ≥90% growth inhibition; 48 hours; vs 2% DMSO control; read-out: Compound Concentration (ppm) sufficient for ≥90% inhibition of Fm. A digest of the protocol:
as §1

Test [4] concerns Collectotrichum graminicola (Cg). Kind of test: In vitro pathogen growth inhibition assay, Cg. The settings on record: 48 h, ≥90% growth inhibition; 48 hours; vs 2% DMSO control; read-out: Compound Concentration (ppm) sufficient for ≥90% inhibition of Cg. A digest of the protocol:
as §1

As for `COCCO[C@@H](Cn1c(=O)n(C(C)(C)C(=O)NC2CCCCC2)c(=O)c2c(C)c(-n3cccn3)sc21)c1cc(F)ccc1OC` [Compound I-293], the IC90 in the test on Botrtyis cinerea (Bc) was 10 µg/mL (≈ 15.6 µM); with Septoria tritici (St) it was over 50 µg/mL; in test [1], over 50 µg/mL; with Diplodia maydis (Dm), over 50 µg/mL; in test [2], 50 µg/mL (≈ 77.9 µM); with Rhizoctonia solani (Rs) it was over 50 µg/mL. Also, the IC90 in test [3] is 2 µg/mL (≈ 3.12 µM); in test [4], over 50 µg/mL.

`COc1ccccc1CCn1c(=O)n(C(C)(C)C(=O)NC(C)C)c(=O)c2c(C)c(-n3nccn3)sc21` [Compound I-294]: the IC90 is 0.4 µg/mL (≈ 0.783 µM) in the test on Botrtyis cinerea (Bc); over 50 µg/mL in the test on Septoria tritici (St); over 50 µg/mL in test [1]; 10 µg/mL (≈ 19.6 µM) in the test with Diplodia maydis (Dm); 0.08 µg/mL (≈ 0.157 µM) in test [2]; 2 µg/mL (≈ 3.92 µM) in the test on Rhizoctonia solani (Rs). Moreover, the IC90 in test [3] was found to be 0.4 µg/mL (≈ 0.783 µM); in test [4], 10 µg/mL (≈ 19.6 µM).

On to `CCNC(=O)[C@@H](C)n1c(=O)c2c(C)c(-n3cccn3)sc2n(C[C@H](OCCC#N)c2cc(F)ccc2OC)c1=O` [Compound I-295], for which the IC90 in the test with Botrtyis cinerea (Bc) was 2 µg/mL (≈ 3.52 µM); in the test on Septoria tritici (St), over 50 µg/mL; in test [1], over 50 µg/mL; in the test on Diplodia maydis (Dm), 10 µg/mL (≈ 17.6 µM); in test [2] it was 2 µg/mL (≈ 3.52 µM); with Rhizoctonia solani (Rs), 2 µg/mL (≈ 3.52 µM). The IC90 was determined as 0.4 µg/mL (≈ 0.703 µM) in test [3] and 2 µg/mL (≈ 3.52 µM) in test [4].

Turning to `COc1ccc(F)cc1CCn1c(=O)n(C(C)(C)C(=O)NC(C)C)c(=O)c2c(C)c(-n3nccn3)sc21` [Compound I-296], the IC90 with Botrtyis cinerea (Bc) is 2 µg/mL (≈ 3.78 µM); in the test with Septoria tritici (St), over 50 µg/mL; in test [1], over 50 µg/mL; with Diplodia maydis (Dm) it was 10 µg/mL (≈ 18.9 µM); in test [2], 2 µg/mL (≈ 3.78 µM); in the test with Rhizoctonia solani (Rs), 2 µg/mL (≈ 3.78 µM). Moreover, the IC90 in test [3] and in test [4] was 2 µg/mL (≈ 3.78 µM) throughout.

For `CCNC(=O)[C@@H](C)n1c(=O)c2c(C)c(C(=O)OCC)sc2n(C[C@H](OCCC#N)c2cc(F)ccc2OC)c1=O` [Compound I-297], the IC90 is 10 µg/mL (≈ 17.4 µM) with Botrtyis cinerea (Bc); over 50 µg/mL in the test with Septoria tritici (St); over 50 µg/mL in test [1]; over 50 µg/mL with Diplodia maydis (Dm); over 50 µg/mL in test [2]; over 50 µg/mL in the test with Rhizoctonia solani (Rs). Moreover, the IC90 in test [3] turned out to be 2 µg/mL (≈ 3.48 µM); in test [4], 10 µg/mL (≈ 17.4 µM).

With `CCOC(=O)c1sc2c(c1C)c(=O)n(C(C)(C)C(=O)NC(C)C)c(=O)n2CCc1cc(F)ccc1OC` [Compound I-298], the IC90 in the test on Botrtyis cinerea (Bc) was 2 µg/mL (≈ 3.75 µM); in the test on Septoria tritici (St), over 50 µg/mL; in test [1], over 50 µg/mL; in the test with Diplodia maydis (Dm) it was at least 10 µg/mL; in test [2], 2 µg/mL (≈ 3.75 µM); with Rhizoctonia solani (Rs), over 50 µg/mL. Moreover, the IC90 in test [3] came out at 2 µg/mL (≈ 3.75 µM); in test [4] it was 10 µg/mL (≈ 18.7 µM).

On to `COCCO[C@@H](Cn1c(=O)n(C(C)(C)C(=O)NC2CCC2)c(=O)c2c(C)c(-n3cccn3)sc21)c1cc(F)ccc1OC` [Compound I-299], for which the IC90 is 2 µg/mL (≈ 3.26 µM) in the test on Botrtyis cinerea (Bc); over 50 µg/mL with Septoria tritici (St); over 50 µg/mL in test [1]; 50 µg/mL (≈ 81.5 µM) with Diplodia maydis (Dm); 2 µg/mL (≈ 3.26 µM) in test [2]; 50 µg/mL (≈ 81.5 µM) in the test with Rhizoctonia solani (Rs). In addition, the IC90 worked out at 0.4 µg/mL (≈ 0.652 µM) in test [3] and 10 µg/mL (≈ 16.3 µM) in test [4].

With `Cc1c(-n2nccn2)sc2c1c(=O)n(C(C)(C)C(=O)NC(C)C)c(=O)n2C[C@H](OCCC#N)c1ccccc1O` [Compound I-301], the IC90 in the test on Botrtyis cinerea (Bc) is 10 µg/mL (≈ 17.7 µM); with Septoria tritici (St) it was over 50 µg/mL; in test [1] it was over 50 µg/mL; in the test on Diplodia maydis (Dm), over 50 µg/mL; in test [2], at least 2 µg/mL; in the test with Rhizoctonia solani (Rs) it was 10 µg/mL (≈ 17.7 µM). The IC90 is 2 µg/mL (≈ 3.54 µM) in test [3] and over 50 µg/mL in test [4].

Values taken from US10941157B2, “Pesticidal compositions and uses thereof” (Gilead Apollo, LLC, priority 2015, dated 2021).
